From patent EP4782448A1, “SUBSTITUTED PYRIDOTRIAZOLE COMPOUND, AND PREPARATION METHOD THEREFOR AND USE THEREOF” (Origiant Pharmaceutical Co., Ltd., priority 2023, dated 2025) come the findings set out here.

Where two headings read alike, the source gives them in different places. Where only a bound is given, the exact number is not on record here.

Assay [1] deals with T1, RIPK1 Kinase (Homo sapiens, UniProt Q13546).
T1 construct: purchased Eurofins (Kinase Profiler service)
T1 sequence (Q13546 1-671): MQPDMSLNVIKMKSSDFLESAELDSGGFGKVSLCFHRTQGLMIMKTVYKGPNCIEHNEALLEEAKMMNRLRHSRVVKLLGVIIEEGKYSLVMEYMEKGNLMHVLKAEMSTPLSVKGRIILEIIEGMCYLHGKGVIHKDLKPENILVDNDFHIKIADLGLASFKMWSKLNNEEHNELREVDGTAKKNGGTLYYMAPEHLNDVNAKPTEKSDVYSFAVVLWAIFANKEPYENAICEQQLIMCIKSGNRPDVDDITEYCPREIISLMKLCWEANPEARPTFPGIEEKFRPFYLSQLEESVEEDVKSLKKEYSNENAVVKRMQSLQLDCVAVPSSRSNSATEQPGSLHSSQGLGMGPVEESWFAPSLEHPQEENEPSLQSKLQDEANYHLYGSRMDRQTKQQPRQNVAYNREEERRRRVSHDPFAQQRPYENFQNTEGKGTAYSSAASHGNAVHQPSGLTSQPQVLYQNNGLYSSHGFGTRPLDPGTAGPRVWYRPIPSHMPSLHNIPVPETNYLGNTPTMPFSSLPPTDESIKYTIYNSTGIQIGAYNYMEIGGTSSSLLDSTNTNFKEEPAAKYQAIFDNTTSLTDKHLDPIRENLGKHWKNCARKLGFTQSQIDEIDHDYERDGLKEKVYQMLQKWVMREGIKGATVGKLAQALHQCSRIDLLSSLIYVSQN
Nature of the assay: biochemical.
Protocol: This assay was completed using the Kinase Profiler service provided by Eurofins. The experimental method was as follows: The small molecule compound to be tested (0.001-10 µM) and the protein kinase to be tested were incubated with a buffer containing a substrate, 10 mM magnesium acetate, and [γ-^33P-ATP]. The reaction was initiated by adding a Mg\ATPmix. After incubation at room temperature for a period of time, a 3% phosphate solution was added to the buffer to terminate the reaction. Subsequently, 10 µL of the reaction mixture was quantitatively pipetted and dropped onto P30 filter paper. The paper was washed three times with 75 mM phosphate solution and once with methanol. After drying, scintillation fluid was added for scinticounting. The inhibitory activity of the compound was expressed as the half-maximal inhibitory concentration (IC50). The IC50 values were derived by fitting the inhibition rates corresponding to the respective concentration gradients.

Assay [2] has as its system HT-29 cells. Nature of the assay: In vitro assay for protection of HT-29 cells from necroptosis (TNFα/Smac mimetic/Z-VAD-FMK induction, CCK8 readout). In kind it is cell-based. To be noted: read-out: HT-29 (EC50).
Assay [3] addresses MLK2/3 kinase. Nature of the assay: In vitro MLK2/3 kinase assay (ADP-Glo method, ICE Bioscience). In kind it is biochemical. (In ADP-Glo the light output rises with the ADP produced.)
Protocol: The in vitro MLK2/3 kinase assay utilized the ADP-Glo method provided by ICE Bioscience INC. A drug screening system based on MLK2/3 kinase was employed to evaluate the inhibiting ability of small molecule compounds against kinase activity. The experimental method is as follows: ADP-Glo Method • 1. 2 × ATP/substrate solution and 2 × kinase solution were prepared using kinase reaction buffer. • 2. 40 nL of the compound diluent was transferred into a 384-well plate using an Echo 655. After centrifugation, 2 µL of 2 × kinase solution was added to the 384-well plate, centrifuged at 1000 rpm for 1 min, and incubated at 25°C for 10 min; • 3.2 µL of 2 × substrate and ATP solution was added into the 384-well plate, centrifuged at 1000 rpm for 1 min, and incubated at 25°C for 60 min. • 4. 4 µL of ADP-Glo was transferred to a 384-well plate, centrifuged at 1000 rpm for 1 min, and incubated at 25°C for 40 min. • 5. 8 µL of test solution was transferred to a 384-well plate, centrifuged at 1000 rpm for 1 min, and incubated at 25°C for 40 min. • 6. The luminescence signal was read using a multifunctional microplate reader. • 7. Data Analysis
The IC50 (half inhibitory concentration) of a compound was obtained using the following non-linear fitting formula: Y = Bottom + (Top−Bottom)/(1+10^(∧)((LogIC50−X)*HillSlope)) [formula] • X: Compound concentration log value • Y: Compound inhibition rate (% inh)
Setting [4] is: compound 0.001-10 µM, read-out: RIPK1(IC50).
[5] abbreviates: TNFα/Smac mimetic/Z-VAD-FMK for 24 h, inhibition of necroptosis.

As to `CC(=O)Nc1nc2cc(-c3ccc4c(c3)c(C(=O)NC3CCc5cc(F)ccc53)cn4C)ccn2n1` (single isomer, unassigned) [Compound 127], the IC50 (as a rule, the concentration that gives 50% inhibition) in assay [1] lay within 100 to 1000 nM. For the same compound, in assay [2] (Homo sapiens, HT-29, 24 h), the EC50 (as a rule, the concentration at which the effect is half-maximal) is 1000 to 10000 nM.
Turning to `C[C@H](NC(=O)c1cn(C)c2ccc(-c3ccn4nc(NC(=O)CN5C6CC7CC(C6)C(O)C5C7)nc4c3)cc12)c1ccc(F)cc1` (stereo partly drawn) [Compound 59], the IC50 in assay [1] (setting [4]) is 10 to 100 nM. Besides, the EC50 in assay [2] (setting [5]) is under 1 nM.
As to `C[C@H](NC(=O)c1cn(C)c2ccc(-c3ccn4nc(NC(=O)CN5CC(C)(C#N)C5)nc4c3)cc12)c1ccc(F)cc1` [Compound 29], the IC50 in assay [1] fell in the range of 10 to 100 nM.
On the same count and under the same terms, in the case of `Cn1cc(C(=O)N[C@H]2CCc3ccc(F)cc32)c2cc(-c3ccn4nc(NC(=O)[C@H]5CCCO5)nc4c3)ccc21` [Compound 121] it was 10 to 100 nM; in that of `C[C@H](NC(=O)c1cn(C)c2ccc(-c3ccn4nc(NC(=O)CN5C[C@H]6C[C@@H]5CO6)nc4c3)cc12)c1ccc(F)cc1` [Compound 39], 10 to 100 nM.
Still for that read-out and setting: in the case of `C[C@H](NC(=O)c1cn(C)c2ccc(-c3ccn4nc(NC(=O)CN(C)C)nc4c3)cc12)c1ccc(F)cc1` [Compound 40] it was 10 to 100 nM; in that of `C[C@H](NC(=O)c1cn(C)c2ccc(-c3ccn4nc(NC(=O)C5CCOC5)nc4c3)cc12)c1ccc(F)cc1` (stereo partly drawn) [Compound 106], 10 to 100 nM; in that of `Cn1cc(C(=O)N[C@H](c2ccc(F)cc2)C(F)F)c2cc(-c3ccn4nc(NC(=O)C5CC5)nc4c3)ccc21` [Compound 161], 1 to 10 nM.
In assay [1], `CC(=O)Nc1nc2cc(-c3ccc4c(c3)c(C(=O)N[C@H]3CCc5ccc(F)cc53)cn4C)ccn2n1` [Compound 124] showed an IC50 of 10 to 100 nM. Moreover, the EC50 in assay [2] (Homo sapiens, HT-29, 24 h) lay in the range of 1 to 10 nM.
For the compound `C[C@H](NC(=O)c1cn(C)c2ccc(-c3ccn4nc(NC(=O)CN5CC6CCC(C5)O6)nc4c3)cc12)c1ccc(F)cc1` [Compound 71], the IC50 in assay [1] was 10 to 100 nM.
The same measure, in the same setting: under `CC(C(=O)Nc1nn(C)c2ccc(-c3ccn4nc(NC(=O)C5CC5)nc4c3)cc12)c1ccc(F)cc1` (stereo not drawn) [Compound 182] stands 100 to 1000 nM.
With `CC(=O)Nc1nc2cc(-c3ccc4c(c3)c(C(=O)N[C@H]3CCCc5cc(F)ccc53)cn4C)ccn2n1` [Compound 138], the IC50 in assay [1] (setting [4]) was 10 to 100 nM.
In assay [1], `C[C@H](NC(=O)c1cn(C)c2ccc(-c3ccn4nc(NC(=O)C(=O)N5CCOCC5)nc4c3)cc12)c1ccc(F)cc1` [Compound 9] registered a 50% inhibitory concentration (IC50) of 10 to 100 nM.
For the compound `COCCNCC(=O)Nc1nc2cc(-c3ccc4c(c3)c(C(=O)N[C@@H](C)c3ccc(F)cc3)cn4C)ccn2n1` [Compound 68], the IC50 in assay [1] lay in the range of 10 to 100 nM.
`Cn1cc(C(=O)N[C@H]2CCc3cc(C#N)ccc32)c2cc(-c3ccn4nc(NC(=O)C5CC5)nc4c3)ccc21` [Compound 130] showed a 50% inhibitory concentration (IC50) in assay [1] of 10 to 100 nM.
On the same count and under the same terms, under `C[C@H](NC(=O)c1cn(C)c2ccc(-c3ccn4nc(NC(=O)CN5CCC(O)CC5)nc4c3)cc12)c1ccc(F)cc1` [Compound 6] stands 10 to 100 nM; under `C[C@H](NC(=O)c1cn(C)c2ccc(-c3ccn4nc(NC(=O)[C@@H]5CCC(=O)N5)nc4c3)cc12)c1ccc(F)cc1` [Compound 14], 10 to 100 nM.
In the case of `C[C@H](NC(=O)c1cn(C)c2ccc(-c3ccn4nc(NC(=O)CN5CC(O)CC5=O)nc4c3)cc12)c1ccc(F)cc1` (single isomer, unassigned) [Compound 3], the IC50 in assay [1] fell in the range of 10 to 100 nM. In assay [2] (Homo sapiens, HT-29, 24 h), the EC50 lay in the range of 10 to 100 nM.
`C[C@H](NC(=O)c1nn(C)c2ccc(-c3ccn4nc(NC(=O)CN5CCOCC5)nc4c3)cc12)c1ccc(F)cc1` [Compound 196] returned an IC50 in assay [1] of 10 to 100 nM.
The compound `C[C@@H](c1ccc(F)cc1)N(C)C(=O)c1cn(C)c2ccc(-c3ccn4nc(NC(=O)C5CC5)nc4c3)cc12` [Compound 175] displayed an IC50 in assay [1] of 10 to 100 nM. For the same compound, the EC50 in assay [2] (Homo sapiens, HT-29, 24 h) was under 1 nM.
`C[C@H](NC(=O)c1cn(C)c2ccc(-c3ccn4nc(NC(=O)CN5CCOCC5)nc4c3)cc12)c1ccc(F)cc1` [Compound 75]: the results for the IC50 in assay [3] and in assay [1] were 10 to 100 nM and 1 to 10 nM, respectively.
As to `C[C@H](NC(=O)c1cn(C)c2ccc(-c3ccn4nc(NC(=O)CN(C)CCO)nc4c3)cc12)c1ccc(F)cc1` [Compound 74], the half-inhibitory concentration (IC50) in assay [3] and in assay [1] was 10 to 100 nM in each case.
`C[C@H](NC(=O)c1cn(C)c2ccc(-c3ccn4nc(NC(=O)CN5CCN(C)CC5)nc4c3)cc12)c1ccc(F)cc1` [Compound 51] showed an IC50 in assay [1] of 10 to 100 nM.
Regarding `CC(c1ccc(F)cc1)n1cnc(-c2cn(C)c3ccc(-c4ccn5nc(NC(=O)C6CC6)nc5c4)cc23)n1` (stereo not drawn) [Compound 210], the IC50 in assay [1] (setting [4]) was 1000 to 10000 nM. In assay [2] (setting [5]), the EC50 lay within 100 to 1000 nM.
For `C[C@H](NC(=O)c1cn(C)c2ccc(-c3ccn4nc(NC(=O)CN5CCOC[C@@H]5C)nc4c3)cc12)c1ccc(F)cc1` [Compound 60], the IC50 in assay [1] was in the range of 10 to 100 nM.
